In PMC5573420, “Correlation between human ether‐a‐go‐go‐related gene channel inhibition and action potential prolongation” (British Journal of Pharmacology, 2017):
Entries after “also recorded” stand apart in the source; their conditions may differ. Like-named read-outs stand apart in the source and are kept apart here.

Tests used:
hERG potassium channels = details: cited from earlier work
hERG channels = hERG channels (Homo sapiens, UniProt Q12809); assay: hERG current inhibition, automated planar patch clamp in HEK293 cells stably expressing hERG
Chain of hERG channels (Q12809 whole entry): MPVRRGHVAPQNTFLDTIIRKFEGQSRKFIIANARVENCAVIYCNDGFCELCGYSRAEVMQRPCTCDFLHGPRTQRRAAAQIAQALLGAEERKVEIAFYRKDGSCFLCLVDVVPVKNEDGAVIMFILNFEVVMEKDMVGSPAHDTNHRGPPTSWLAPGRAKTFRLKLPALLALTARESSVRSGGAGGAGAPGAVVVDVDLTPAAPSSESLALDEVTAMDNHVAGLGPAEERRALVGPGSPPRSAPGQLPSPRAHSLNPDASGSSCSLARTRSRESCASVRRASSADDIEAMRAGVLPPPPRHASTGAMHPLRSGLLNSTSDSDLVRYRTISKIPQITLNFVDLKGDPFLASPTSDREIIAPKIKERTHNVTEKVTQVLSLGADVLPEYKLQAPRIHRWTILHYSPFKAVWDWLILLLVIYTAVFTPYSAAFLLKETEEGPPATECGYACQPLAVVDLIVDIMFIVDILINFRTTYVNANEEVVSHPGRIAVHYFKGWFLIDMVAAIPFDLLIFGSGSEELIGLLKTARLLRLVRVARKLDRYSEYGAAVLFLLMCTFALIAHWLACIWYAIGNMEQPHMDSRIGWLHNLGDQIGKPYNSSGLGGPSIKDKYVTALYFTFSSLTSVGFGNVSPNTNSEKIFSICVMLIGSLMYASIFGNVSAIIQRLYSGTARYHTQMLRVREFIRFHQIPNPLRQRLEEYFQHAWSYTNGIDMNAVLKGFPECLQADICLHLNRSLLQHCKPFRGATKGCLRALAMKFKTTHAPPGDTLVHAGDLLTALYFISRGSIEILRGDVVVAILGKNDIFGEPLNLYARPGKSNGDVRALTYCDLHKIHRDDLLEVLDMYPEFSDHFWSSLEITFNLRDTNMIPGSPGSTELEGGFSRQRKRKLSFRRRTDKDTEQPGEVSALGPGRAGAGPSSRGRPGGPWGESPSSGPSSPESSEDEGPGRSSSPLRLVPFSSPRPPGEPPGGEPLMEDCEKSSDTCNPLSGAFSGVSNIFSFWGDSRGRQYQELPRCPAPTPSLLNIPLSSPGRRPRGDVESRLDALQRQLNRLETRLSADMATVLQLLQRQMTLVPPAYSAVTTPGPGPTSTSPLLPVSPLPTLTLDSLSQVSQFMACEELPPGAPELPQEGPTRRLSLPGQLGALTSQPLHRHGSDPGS
Procedure: (§1) Currents were low‐pass filtered at 10 kHz using the internal Bessel filter and sampled at 25 kHz. The extracellular solution for hERG current recording contained 140 mM NaCl, 4 mM KCl, 2 mM CaCl2, 1 mM MgCl2,5 mM D‐glucose and 10 mM HEPES (pH 7.4) (Sigma‐Aldrich). The intracellular solution for hERG current recording contained 50 mM KCl, 10 mM NaCl, 60 mM KF, 20 mM EGTA and 10 mM HEPES (pH 7.2). The extracellular solution for measuring sodium currents in HEK cells stably expressing the human clone of Nav1.5 (GenBank M77235) contained 4 mM KCl, 20 mM NaCl, 1.8 mM CaCl2, 0.75 mM MgCl2, 5 mM HEPES, 120 mM choline chloride and pH 7.4 using NaOH. The intracellular solution for sodium current recording contained 120 mM CsF, 20 mM CsCl, 5 mM EGTA, 5 mM HEPES and pH 7.4 using CsOH. All chemicals were obtained from Sigma‐Aldrich Chemie GmbH (Taufkirchen, Germany). The compound solutions were applied by means of the automated NPC‐16 Patchliner planar patch‐clamp platform.
Data are presented as mean ± SEM for at least five cells from two different batches or for three independent measurements with HEK293 cells.
The concentration–inhibition relationships were analysed by plotting the normalized values of peak tail current versus peak tail steady current in the presence of the respective cumulatively applied compound concentrations (Figure 4B, C). Data points were fitted using Hill equation.

hiPSC-CMs = assay: Optical measurement of action potential duration (APD90) in hiPSC-CMs using voltage-sensitive dye di-4-ANEPPS; details: for activity at 0.01 µM / activity at 0.03 µM / activity at 0.1 µM / activity at 0.3 µM / activity at 1 µM / EC (50% APD prolongation) / activity at 0.001 µM: Homo sapiens; for activity at 0.01 µM / activity at 0.03 µM / activity at 0.1 µM / activity at 0.3 µM / activity at 1 µM / activity at 0.001 µM: 0.5 h; for Maximal AP prolongation: maximal level over concentrations tested
Procedure: The plates were then incubated at 37°C, 5% CO2. Forty‐eight hours post‐thaw, 100% of the plating medium was replaced with CDI Maintenance Medium (CDI, CMC‐100‐120‐001), and further, 100% media changes were performed every 2 days after that.
Afterwards, the medium containing VSD was replaced by fresh serum‐free medium, and the cells were returned to the incubator. The multi‐well plate was placed in an environmentally controlled stage incubator (37°C, 5% CO2, water‐saturated air atmosphere) (Okolab Inc, Burlingame, CA, USA) of the CelIOPTIQ platform (Clyde Biosciences Ltd, Glasgow, Scotland). The di‐4‐ANEPPS fluorescence signal was recorded from a 0.2 × 0.2 mm area using a 40× (NA 0.6) objective lens. Excitation wavelength was 470 ± 10 nm using a light‐emitting diode (LED), and emitted light was collected by two photomultipliers (PMTs) at 510–560 and 590–650 nm respectively. LED, PMT, associated power supplies and amplifiers were supplied by Cairn Research Ltd (Kent, UK). […] A 20 s recording was then taken 30 min after exposure to the drug or vehicle with only one concentration applied per well. The records were subsequently analysed offline using proprietary software (CellOPTIQ). The procedure was repeated from four to five times, and parallel matched control (vehicle) measurements were taken on cardiomyocytes with equivalent concentrations of vehicle (DMSO). AP parameters were measured, including APD at 50, 75 and 90% repolarization (APD50, APD75 and APD90 respectively). Data are given as % change from control for the treated groups (vehicle, control and drug). This allowed a single comparison to be made at each concentration, and every experiment was performed with its own set of controls (vehicle). No data were used more than once.

Nav1.5 = Nav1.5 (Homo sapiens, UniProt Q14524); assay: Sodium current inhibition in HEK cells stably expressing Nav1.5, planar patch clamp; details: for IC50: Nav1.5 IC50 (peak INa inhibition)
Chain of Nav1.5 (Q14524 whole entry): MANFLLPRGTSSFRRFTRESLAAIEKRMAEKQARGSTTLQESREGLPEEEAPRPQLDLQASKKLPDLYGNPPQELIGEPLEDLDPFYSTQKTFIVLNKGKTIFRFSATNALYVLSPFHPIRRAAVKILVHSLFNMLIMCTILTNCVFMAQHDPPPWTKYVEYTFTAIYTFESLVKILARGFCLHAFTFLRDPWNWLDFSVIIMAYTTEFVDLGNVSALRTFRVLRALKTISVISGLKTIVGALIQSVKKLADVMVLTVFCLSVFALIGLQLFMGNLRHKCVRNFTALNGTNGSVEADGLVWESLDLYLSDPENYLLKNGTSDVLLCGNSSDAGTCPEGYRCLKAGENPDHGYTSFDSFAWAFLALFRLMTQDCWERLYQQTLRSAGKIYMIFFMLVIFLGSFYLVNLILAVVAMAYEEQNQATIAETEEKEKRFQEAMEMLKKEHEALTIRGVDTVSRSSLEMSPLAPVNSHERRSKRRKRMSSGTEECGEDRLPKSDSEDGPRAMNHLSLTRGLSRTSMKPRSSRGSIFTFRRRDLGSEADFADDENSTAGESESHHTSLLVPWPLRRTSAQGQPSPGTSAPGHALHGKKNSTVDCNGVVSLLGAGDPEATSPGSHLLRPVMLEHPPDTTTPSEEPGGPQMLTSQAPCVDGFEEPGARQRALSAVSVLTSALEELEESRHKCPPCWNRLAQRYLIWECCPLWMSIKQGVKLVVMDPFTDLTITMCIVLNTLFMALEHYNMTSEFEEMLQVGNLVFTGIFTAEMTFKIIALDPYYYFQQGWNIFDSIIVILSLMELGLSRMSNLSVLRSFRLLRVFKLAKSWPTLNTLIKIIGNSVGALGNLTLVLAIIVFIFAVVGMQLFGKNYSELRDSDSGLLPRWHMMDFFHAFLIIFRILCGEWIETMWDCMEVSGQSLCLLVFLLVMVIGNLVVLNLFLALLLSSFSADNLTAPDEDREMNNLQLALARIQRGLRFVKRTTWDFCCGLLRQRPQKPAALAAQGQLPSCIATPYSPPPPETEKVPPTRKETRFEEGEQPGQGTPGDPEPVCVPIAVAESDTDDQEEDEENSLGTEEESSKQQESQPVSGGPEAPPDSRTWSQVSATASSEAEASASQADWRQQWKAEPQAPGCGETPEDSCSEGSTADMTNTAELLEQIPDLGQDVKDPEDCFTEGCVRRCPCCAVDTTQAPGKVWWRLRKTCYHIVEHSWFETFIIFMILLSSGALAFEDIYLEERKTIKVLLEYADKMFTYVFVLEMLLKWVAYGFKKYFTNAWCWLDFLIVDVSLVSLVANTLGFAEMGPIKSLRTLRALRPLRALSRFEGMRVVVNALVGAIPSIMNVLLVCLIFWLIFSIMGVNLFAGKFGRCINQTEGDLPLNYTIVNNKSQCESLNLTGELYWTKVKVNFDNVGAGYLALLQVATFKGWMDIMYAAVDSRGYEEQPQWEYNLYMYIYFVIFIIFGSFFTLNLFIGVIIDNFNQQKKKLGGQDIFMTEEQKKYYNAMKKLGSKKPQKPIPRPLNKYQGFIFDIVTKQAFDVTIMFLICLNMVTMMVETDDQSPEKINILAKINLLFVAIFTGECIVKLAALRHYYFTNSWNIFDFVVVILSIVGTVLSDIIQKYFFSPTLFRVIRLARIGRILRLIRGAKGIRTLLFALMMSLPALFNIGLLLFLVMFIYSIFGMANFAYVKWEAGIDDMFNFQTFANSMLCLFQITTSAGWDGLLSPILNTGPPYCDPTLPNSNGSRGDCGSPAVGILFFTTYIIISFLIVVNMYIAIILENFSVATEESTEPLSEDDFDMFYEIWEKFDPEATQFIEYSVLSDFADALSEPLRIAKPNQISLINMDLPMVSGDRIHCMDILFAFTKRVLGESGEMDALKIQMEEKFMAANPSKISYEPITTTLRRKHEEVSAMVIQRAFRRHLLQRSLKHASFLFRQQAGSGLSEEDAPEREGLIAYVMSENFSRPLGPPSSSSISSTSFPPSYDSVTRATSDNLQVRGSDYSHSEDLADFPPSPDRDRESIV
Procedure: as §1

[1] = biological target: Cav1.2 (rabbit α1-subunit with β2a and α2-δ1) (Oryctolagus cuniculus, UniProt P15381); assay: Barium current (IBa) inhibition through Cav1.2 in transfected tsA-201 cells, manual patch clamp; details: rabbit, pH 7.4, Cav1.2 IC50 (peak IBa inhibition), 0.2 Hz, 50 ms pulses from -80 to +10 mV
Procedure: (§2) The transfection of tsA‐201 cells was performed using the FUGENE6 Transfection Reagent (Roche Diagonstics GmbH, Mannheim, Germany) following standard protocols. The tsA‐201 cells were used until passage number 15. […] The extracellular bath solution (in mM: BaCl2 20, MgCl2 1, HEPES 10, choline‐Cl 90) was titrated to pH 7.4 with methanesulfonic acid. […] The drugs were applied to cells under voltage clamp using a microminifold perfusion system. Ca^2+ channel block was estimated as peak IBa inhibition during a train of short (50 ms) test pulses from −80 mV at a frequency of 0.2 Hz. Patch clamp experiments to study hERG, Nav1.5 and Cav1.2 currents were performed at room temperature (22–25°C). All data were digitized and saved to disc. Current traces were filtered at 5 kHz and sampled at 10 kHz. The pClamp software package (Version 7.0 Axon Instruments, Inc.) was used for data acquisition and preliminary analysis. Microcal Origin 7.0 was used for analysis, and sigmoidal curves were fitted using the Hill equation.
(§3) Use‐dependent channel inhibition was studied during trains of 1 Hz and 50 ms test pulses (from −80 to +10 mV). After the application of 20 test pulses in control (absence of drug), the cells were incubated for 3 min with drug at rest. Peak current inhibition during the first pulse (1st, Figure 6C) in the presence of the drug reflects ‘resting state’ block. Additional current inhibition during a subsequently applied pulse train illustrates use‐dependent block. Peak current inhibition in control and drug are compared in Figure 6D.

[2] = biological target: rabbit CaV1.2 α1-subunit with β2a and α2-δ1 (Oryctolagus cuniculus, UniProt P15381); assay: as above
Procedure: as §2, §3

[3] = read-out: Ki binding studies, radioligand binding, ref Shagufta et al 2009
[4] = read-out: Changes in APD90 in hiPSC-CMs
[5] = read-out: D150 (concentration that prolongs the AP by 50%), APD90 in hiPSC-CMs

| Compound | Ki (hERG potassium channels; [3]) [nM] | IC50 (hERG channels) [nM] | activity at 0.01 µM (hiPSC-CMs; [4]) [%] | activity at 0.03 µM (hiPSC-CMs; [4]) [%] | activity at 0.1 µM (hiPSC-CMs; [4]) [%] | activity at 0.3 µM (hiPSC-CMs; [4]) [%] | activity at 1 µM (hiPSC-CMs; [4]) [%] | EC (50% APD prolongation) (hiPSC-CMs; [5]) [µM] | Incidence of EADs (hiPSC-CMs; hiPSC-CMs) | Maximal AP prolongation (hiPSC-CMs; hiPSC-CMs) [%] | other results |
| --- | --- | --- | --- | --- | --- | --- | --- | --- | --- | --- | --- |
| CN(CCOc1ccccc1)CCc1ccccc1 [Dofe30] | > 10000 | 297 ± 77.5 | 99 | 92 | 105 | 190 | 140 | 0.213 | without (if any) incidence of EADs | – | – |
| CN(CCOc1ccc(Cl)cc1)CCc1ccc(Cl)cc1 [Dofe31] | – | – | 100 | 103 | 108 | 214 | 296 | 0.151 | – | – | Incidence of EADs (hiPSC-CMs): without (if any) incidence of EADs; activity at 0.001 µM (hiPSC-CMs; [4]): 127% |
| Cc1ccc(CCN(C)CCOc2ccc(C)cc2)cc1 [Dofe33] | – | – | – | – | – | – | – | – | – | 250 | Effect on APD90 / AP prolongation (in words) (hiPSC-CMs): negligible effect on APD90 prolongation until 100 nM |
| CN(CCOc1ccc([N+](=O)[O-])cc1)CCc1ccc([N+](=O)[O-])cc1 [Dofe35] | – | 22.1 | – | – | – | – | – | – | incidence of EADs at the higher concentrations | ≤ 1000 | Ki (hERG potassium channels): 5.7 ± 3 nM; activity at 0.001 µM (hiPSC-CMs; read-out: Changes in APD90 in hiPSC-CMs, 1 nM, 30 min exposure): 102%; activity at 0.01 µM (hiPSC-CMs; read-out: Changes in APD90 in hiPSC-CMs, 10 nM, 30 min exposure): 159%; activity at 0.03 µM (hiPSC-CMs; read-out: Changes in APD90 in hiPSC-CMs, 30 nM, 30 min exposure): 770%; activity at 0.1 µM (hiPSC-CMs; read-out: Changes in APD90 in hiPSC-CMs, 100 nM, 30 min exposure): 746%; activity at 0.3 µM (hiPSC-CMs; read-out: Changes in APD90 in hiPSC-CMs, 300 nM, 30 min exposure): 650%; EC (50% APD prolongation) (hiPSC-CMs; read-out: D150 (concentration that prolongs the AP by 50%)): 0.0083 µM |
| CN(CCOc1ccc(Cl)cc1)CCc1ccccc1 [Dofe41] | – | – | 140 | – | 144 | 162 | 262 | 0.157 | without (if any) incidence of EADs | – | – |
| COc1ccc(OCCN(C)CCc2ccccc2)cc1 [Dofe42] | 3.3 ± 2 | 213 ± 83.5 | 113 | – | 92 | 95 | 98 | > 0.6 | – | – | Shift of Nav1.5 concentration-response curve towards lower concentrations (Nav1.5; -80 mV versus -140 mV holding potential): 5.6 fold; IC50 (Nav1.5; holding potential -80 mV): 13800 ± 1900 nM; IC50 (Nav1.5; holding potential -140 mV, 0.2 Hz): 77900 ± 9700 nM; IC50 [1]: 38000 ± 9300 nM; Peak current decay after 20 pulses at 1 Hz (use-dependent block) ([2]; 100 μM, 50 ms pulses from -80 to +10 mV, control 12 ± 2%): 38 ± 2%; Resting state and use-dependent block of Cav1.2 ([2]; 1 Hz trains of 50 ms pulses after 3 min incubation at rest): pronounced resting state block and additional use‐dependent block; Effect on APD90 / AP prolongation (in words) (hiPSC-CMs; hiPSC-CMs): did not affect APD90 even at 1 μM; also recorded: did not induce prolongation of AP |
